# Laboratory results: patent US5108916A, “Process for stereoselectively hydrolyzing, transesterifying or esterifying with immobilized isozyme of lipase from Candida rugosa” (priority 1989, dated 1992)
# “And” between values parts separate entries of the source, which are not always exact repeats. Equal entries are not always repeated.
# System: CSC-2
# Assay: Effect of additives and solvents on hydrolysis of ketoprofen monoglyceride by CSC-2
# Assay type: biochemical, Candida rugosa
# Description: Hydrolysis of ketoprofen-monoglyceride (50mg) was carried out in various DMF-100mM (NH4)H2 PO4 buffer (pH 5.5) mixtures. In each flask a solution of ketoprofen monoglyceride (50mg) in DMF (200ul) was added. DMF was added followed by 100mM (NH4)H2 PO4 buffer. […] After 22 hours, 2%, 5%, and 10% DMF samples were acidified, extracted with CHCl3 (2×10ml) and analyzed. The other samples were analyzed directly as in Example 18. The acid produced decreases with increasing amount of DMF.
# Small amounts of DMF were added to the reaction mixture to increase the solubility of KPG. In all cases 100mM ammonium phosphate buffer (pH 5.5) was used and 2% (v/v) detergents were added and the total volume was 10ml.
# The buffer reaction (entry #2 in the table) contained enzyme in buffer (2 ml) and the buffer only (entry #1 in the table) reaction contained no enzyme.
# The presence of a surfactant like Tween increases the solubility o lipophilic compounds in water. […] Tween 80 was added to make 1% and 2% solution (v/v). Bovine serum albumin (BSA) (10mg) was added to each of two flasks. A solution of 50mg of ketoprofen monoglyceride in 200ul DMF was added to each. After 20 hours at 250 rpm and 35° C. the reaction mixtures were acidified, extracted and analyzed by the usual HPLC procedure as in Example 18.
# Various surfactants were used at 2% of the reaction volume to determine their effect on the enzymatic reaction involving the conversion of ketoprofen monoglyceride (KPG) to ketoprofen (KP). […] Flasks were covered with parafilm and incubated in a 35° C. water bath at 250 rpm, typically overnight. Reactions were stopped by acidification, extracted with CHCl3 (2×10 ml). The %acid and %ee were determined by the method of Example 18. It is to be noted that Hydrophile-Lipophile Balance (HLB) values have no apparent bearing on the ability of the surfactant to enhance the conversion of KPG to KP.
# 75 mg of KPG (in the absence of DMF) was individually weighed into 50 ml Erlenmeyer flasks. […] 9 ml of 100 mM (NH4)H2 PO4, pH 5.5 buffer was added, and the flasks were placed into a 35° C., 250 rpm water bath incubator for 20 hours. The reactions were acidified, extracted with CHCl3 and examined by HPLC as in Example 18. The %ee was determined as per Example 18.
# Various amounts of oleic acid or its esters were added, and the reactions stopped at the times indicated, acidified, extracted with CHCl3 and analyzed as in Example 18.
# An experiment was performed as in Example 41, but using 100, 200 and 500 ul of olive oil to determine if it would enhance the rate of conversion of KPG to KP. […] After 20 hours, all reactions were acidified, extracted with CHCl3 and analyzed by HPLC as in Example 18. The results are given below:
# 50 mg of KPG was weighed into Erlenmeyer flasks. […] Flasks were incubated at 35° C., 250 rpm for 23 hours. The reactions were stopped by acidification, extracted with CHCl3, and analyzed by HPLC as in Example 18. The additive is listed along with its percentage composition of glycerides of oleic acid.
# To determine the problems associated with having oleic acid or oleate. esters in the reaction media, the following experiment was performed. […] Flasks were placed in a 35° C. incubator at 250 rpm, and the reactions were sampled by taking 200 ul aliquots at various time points. These aliquots were analyzed by HPLC (ODS-3 RAC column, CH3 OH: 10 mM (NH4)H2 PO4 (60:40) eluant, 4 ml/min, 254 nm detection) to determine the course of reaction. When approximately 40% acid was produced, the reactions were stopped by placing the flasks in the -70° C. freezer. Two extraction procedures were utilized to determine the best method of isolating S-Ketoprofen free of oleic acid. The first (listed as Extraction Procedure I in the following table) involved first making the solution basic (pH 10) with NaOH, then extracting with hexane, then CHCl3.
# [1] = 18 hr with 100 ul (b930-b936), 23 hr with 200 ul (b937-b944), None = CSC-2 alone
# [2] = 5 g KPG, 50 mg CSC-2, 5 grams additive
# [3] = additive 100 ul, 75 mg KPG, no DMF, 20 hours
# [4] = additive 200 ul, 75 mg KPG, 20 hours
# [5] = additive 500 ul, 75 mg KPG, 20 hours
# [6] = surfactant 2% of reaction volume, 200 ul DMF, enzyme alone = 100
# [7] = 200 ul DMF, b1067-b1069 18 hr, b1070-b1084 23 hr, amounts: 200 ul except tributyrin, dilinolein, trilinoein 100 ul, monostearin, distearin 25 ul, tristearin 28 ul, 0 = CSC-2 alone
# [8] = solvent/buffer 1:1 two phase, 16 hour reactions
molecule,measurement,setting,value
CCCCCCCC/C=C\CCCCCCCC(=O)OCC(COC(=O)CCCCCCC/C=C\CCCCCCCC)OC(=O)CCCCCCC/C=C\CCCCCCCC [triolein],% Acid,[1],38%
same,Rate,as E158,3
Tween 80,Final % Acid,[2],34.9%
same,Rate,[2],0.46 µmol/h/mg
same,Relative Rate,"20 hours, b844=no Tween no BSA, b846=1% Tween and BSA, b848=2% Tween and BSA, b850=2% Tween no BSA, 1200 min",114 and 142 and 118
same,% Acid,[3],12%
same,S-acid (% ee),additive 200 ul,96
same,% Acid,[4],22%
same,% Acid,[5],18%
same,% ee,as E102,96% and 92% and 86% and 97% and 93%
same,ee of S-acid,as E149,95% and 96%
same,Isolated % ee (S-Acid),"extraction procedure I for oleic acid and corn oil, II for the others",94.3%
same,Relative Rate,[6],136
POE-20 stearyl ether [Brij 78],Relative Rate,[6],14
Span 80,% Acid,[3],27%
same,S-acid (% ee),additive 200 ul,97
same,% Acid,[4],28%
same,% Acid,[5],27%
same,Relative Rate,[6],160
CC/C=C\C/C=C\C/C=C\CCCCCCCC(=O)O [linolenic acid],% Acid,[7],13%
CCCCCCCCO [n-Octanol],Relative Rate,[8],0
ClCCCl [Ethylene dichloride],Relative Rate,[8],0
Span 20,Relative Rate,[6],75
Tween 60,Relative Rate,[6],23
CCC(=O)CC [3-Pentanone],Relative Rate,[8],0
POE-2 oleyl ether [Brij 92],Relative Rate,[6],27
O=C1CCCCC1 [Cyclohexanone],Relative Rate,[8],0
Span 60,Relative Rate,[6],108
Diolein,% Acid,[1],42%
same,Rate,as E158,4
CCCCCCCC/C=C\CCCCCCCC(=O)OC [oleic acid methyl ester],% Acid,[1],51%
same,% ee S-acid,"23 hr, 200 ul, None = CSC-2 alone",97%
same,Rate,as E158,3
CCCCCCCCCCCCCCCCCC(=O)OCC(COC(=O)CCCCCCCCCCCCCCCCC)OC(=O)CCCCCCCCCCCCCCCCC [tristearin],% Acid,[7],25%
CCCCCCCC/C=C\CCCCCCCC(=O)OCC(O)CO (stereo not shown) [Monolein],% Acid,[1],43%
same,Rate,as E158,4
CC(=O)OCC(COC(C)=O)OC(C)=O [Triacetin],% Acid,[7],12%
CCc1ccccc1 [Ethylbenzene],EE of S-acid,,48%
same,Relative Rate,"solvent/buffer 1:1 two phase, 26 hours, buffer = 100",18
CCOC(C)=O [Ethyl acetate],Relative Rate,[8],0
CCCC(=O)OCC(COC(=O)CCC)OC(=O)CCC [tributyrin],% Acid,[7],3%
Tween 61,Relative Rate,[6],92
CCCCC/C=C\C/C=C\CCCCCCCC(=O)OC [linoleic acid methyl ester],% Acid,[7],34%
ClCCl [Dichloromethane],Relative Rate,[8],0
Span 40,Relative Rate,[6],99
CCCCCCCCCCCCCCCCCC(=O)OCC(O)COC(=O)CCCCCCCCCCCCCCCCC [distearin],% Acid,[7],30%
